One series has as its system galectins. The note with it: all galectins; cited from earlier work.
A further series addresses galectin-1 (Homo sapiens (Human), UniProt P09382). Description: Fluorescence anisotropy assay, galectin-1 affinity. Format: binding. The note with it: read-out: Gal-1 Kd. On the procedure:
The affinity of Example 1-5 for galectins were determined by a fluorescence anisotropy assay where the compound was used as an inhibitor of the interaction between galectin and a fluorescein tagged saccharide probe as described Sörme, P., Kahl-Knutsson, B., Huflejt, M., Nilsson, U. J., and Leffler H. (2004) Fluorescence polarization as an analytical tool to evaluate galectin-ligand interactions. Anal. Biochem. 334: 36-47, (Sörme et al., 2004) and Monovalent interactions of Galectin-1 By Salomonsson, Emma; Larumbe, Amaia; Tejler, Johan; Tullberg, Erik; Rydberg, Hanna; Sundin, Anders; Khabut, Areej; Frejd, Torbjorn; Lobsanov, Yuri D.; Rini, James M.; et al, From Biochemistry (2010), 49(44), 9518-9532, (Salomonsson et al., 2010). […] 100 nM albumin was included as a carrier to prevent protein loss at such low concentration of galectin.

A further series in a line: Solubility. The class given is physicochemical.
A further series addresses galectin-3 (Homo sapiens (Human), UniProt P17931). In words: Fluorescence anisotropy assay, galectin-3 affinity. Format: binding. The following applies: read-out: Gal-3 Kd. The method, then:
Anal. Biochem. 334: 36-47, (Sörme et al., 2004) and Monovalent interactions of Galectin-1 By Salomonsson, Emma; Larumbe, Amaia; Tejler, Johan; Tullberg, Erik; Rydberg, Hanna; Sundin, Anders; Khabut, Areej; Frejd, Torbjorn; Lobsanov, Yuri D.; Rini, James M.; et al, From Biochemistry (2010), 49(44), 9518-9532, (Salomonsson et al., 2010). […] 100 nM albumin was included as a carrier to prevent protein loss at such low concentration of galectin.
For orientation: Polarisation of emitted light reports the rotation of a fluorescent probe.

Series [1] has as its system rabbit model of proliferative Vitreoretinopathy (PVR). In words: Study of ocular fibrosis in rabbits (retinal detachment, PVR model). Format: in vivo, New Zealand white rabbits. The note with it: for reduction of size and number of subretinal glial scars and number of dividing cells: in HEC formulation, rabbit retinal detachment; for number of subretinal scars per mm of retina / scar length per mm of retina: seven days after retinal detachment; for number of subretinal scars per mm of retina / scar length per mm of retina / Ki67 labeled Muller cells per mm of retina: 50 μL IVT in HEC gel, GB1A 0.05 mg/mL, GB1B 1.5 mg/mL; for number of subretinal scars per mm of retina: HEC control 1.26; for scar length per mm of retina: HEC control 175; for Ki67 labeled Muller cells per mm of retina: three days after retinal detachment, HEC control 9.57. On the procedure: 30 New Zealand white rabbits were housed in metal cages that conformed to standards set forth in the Animal Welfare Act and the Guide for the Care and Use of Laboratory Animals. Space recommendations for animals were in accordance with PHS policy and the AWA.
The vehicle gel formulation was 1.65% (w/v) HEC in NaCl. The vehicle formulation was prepared by adding the appropriate amount of HEC to 75% of the required volume of 0.9% NaCl. The resulting formulation was stirred for 20 to 25 minutes after which it was QS'ed (adjusted) to the final volume with 0.9% NaCl and stirred for an additional 2 to 3 hours at room temperature. The gel formulation was then filtered with a 0.2 μm cellulose filter.
The test item formulations were prepared by adding the appropriate amount of GB1A or GB1B to 75% of the required volume of 0.9% NaCl. The resulting formulation was agitated for 20 to 25 minutes after which the pH of the solution was measured and adjusted, as necessary, to 6-6.5 with 0.01M NaOH. The required amount of HEC was added to the test item solution and the formulation was agitated for 20 to 25 minutes. The formulation was then QS'ed to the final volume with NaCl and agitated for an additional 2 to 3 hours at room temperature. The final gel formulation was filtered with a 0.2 μm cellulose filter.
Retinal detachments were created by infusing a dilute solution (0.25%) of Healon into the subretinal space of the right eyes in 30 New Zealand White rabbits. Fifty (50) μL of GB1A (0.05 mg/mL), GB1B (1.5 mg/mL), or vehicle (HEC) formulations were injected intravitreally immediately after the detachment surgery in the right eyes of all animals (n=5 for each vehicle/test item at each time-point). The left eyes served as naïve controls. Euthanasia was performed by administering “Euthasol” IV via an ear vein, on animals of Groups 1 to 3, 3 days after retinal detachment (n=15) to examine the effects on proliferation, and on animals of Groups 4 to 6, 7 days after retinal detachment (n=15) to examine the effects on scaring.
Following euthanasia, the retinas were fixed in 4% paraformaldehyde for 24 hours. Three retinal regions approximately 3 mm square were sampled from within each detached retina as well as from control retinas. The retinas were embedded in agarose and vibratomed at 100 microns in thickness. Sections were immunolabeled with antibodies to intermediate filament proteins (vimentin) and proliferating cells (Ki67). A marker for immune cells (Isolectin B4) and a nuclear stain (DAPI) was also used. All 4 probes were added to the same sections (i.e. quadruple labeling).
The sections were imaged using an Olympus FV1000 confocal microscope. Digital images were acquired and used to determine 1) the number and size of subretinal glial scars 2) the number of dividing cells and their cell type e.g. of immune or glial origin 3) whether microglia are “activated” and 4) if macrophages are present. Animals were weighed pre-dose and at euthanasia. All animals gained a small amount of weight as was expected.
Following euthanasia, the eyes were enucleated, the cornea and lens removed and the eyecups fixed in 4% paraformaldehyde in PBS for 24 hours. Three retinal regions approximately 3 mm^2 were dissected from within each detached retina and embedded in agarose for sectioning as described above. Following immunolabeling, the sections were mounted on glass slides and cover-slipped. Digital images were captured from along the length of each section collected from each of the 3 retinal regions using a FV1000 confocal microscope. Quantitation of scar length and number, as well as the number of dividing cells, was performed using the digital images viewed in “BioImage” (software available as a free download from UCSB's dept. of engineering). In addition, the presence of immune cells as described in the Experimental Design was noted and tabulated for each animal.

Results on 13 compounds are retold here after US10730902B2, “1,1 ′-sulfanediyl-di-beta-D-galactopyranosides as inhibitors of galectins” (GALECTO BIOTECH AB, priority 2015, dated 2020).

≈ marks a conversion by molar mass, not a printed value.

Sequence of galectin-1 (P09382 whole entry): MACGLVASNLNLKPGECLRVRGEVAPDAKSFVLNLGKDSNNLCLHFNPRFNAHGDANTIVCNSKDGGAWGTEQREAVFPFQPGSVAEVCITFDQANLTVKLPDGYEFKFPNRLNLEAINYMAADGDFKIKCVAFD
Sequence of galectin-3 (P17931 whole entry): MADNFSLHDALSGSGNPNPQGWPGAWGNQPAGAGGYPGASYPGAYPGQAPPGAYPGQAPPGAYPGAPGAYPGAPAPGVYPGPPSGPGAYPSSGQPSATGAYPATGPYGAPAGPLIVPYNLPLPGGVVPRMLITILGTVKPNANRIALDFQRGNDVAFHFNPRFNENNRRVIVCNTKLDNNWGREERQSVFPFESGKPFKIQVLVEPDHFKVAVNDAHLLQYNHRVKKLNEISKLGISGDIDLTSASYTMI

For `O=C[C@H](O)[C@@H](O)[C@@H](O)[C@H](O)CO` [D-galactose], in the series on galectins, the “affinity relative to lactose” value is reported as 50-100 times lower.
As for `OCC1O[C@@H](SC2O[C@H](CO)C(O)C(n3cc(N4CCOCC4)nn3)[C@H]2O)C(O)C(n2cc(-c3cc(F)c(F)c(F)c3)nn2)[C@H]1O` (stereo partly drawn) [Example 1, 3,3′-Dideoxy-3-[4-(morpholin-4-yl)-1H-1,2,3-triazol-1-yl]-3′-[4-(3,4,5-trifluorophenyl)-1H-1,2,3-triazol-1-yl]-1,1′-sulfanediyl-di-β-D-galactopyranoside], the Kd (as a rule, the equilibrium constant for the complex coming apart) on galectin-1 turned out to be 0.11 µM.
Regarding `OCC1O[C@@H](SC2O[C@H](CO)C(O)C(n3cc(N4CCOCC4)nn3)[C@H]2O)C(O)[C@@H](n2cc(-c3cc(F)c(F)c(F)c3)nn2)[C@H]1O` (stereo partly drawn) [Example 1, 3,3′-Dideoxy-3-[4-(morpholin-4-yl)-1H-1,2,3-triazol-1-yl]-3′-[4-(3,4,5-trifluorophenyl)-1H-1,2,3-triazol-1-yl]-1,1′-sulfanediyl-di-β-D-galactopyranoside], the solubility – broadly, how much of the substance goes into solution per volume – in “Solubility” is above 10000 µg/mL.
As to `CN1CCN(c2cn(C3C(O)[C@@H](CO)OC(S[C@@H]4OC(CO)[C@H](O)C(n5cc(-c6cc(F)c(F)c(F)c6)nn5)C4O)[C@@H]3O)nn2)CC1` (stereo partly drawn) [Example 2, 3,3′-Dideoxy-3-[4-(4-methylpiperazin-1-yl)-1H-1,2,3-triazol-1-yl]-3′-[4-(3,4,5-trifluorophenyl)-1H-1,2,3-triazol-1-yl]-1,1′-sulfanediyl-di-β-D-galactopyranoside], the Kd on galectin-1 was found to be 0.035 µM.
Take `CN1CCN(c2cn(C3C(O)[C@@H](CO)OC(S[C@@H]4OC(CO)[C@H](O)[C@H](n5cc(-c6cc(F)c(F)c(F)c6)nn5)C4O)[C@@H]3O)nn2)CC1` (stereo partly drawn) [Example 2, 3,3′-Dideoxy-3-[4-(4-methylpiperazin-1-yl)-1H-1,2,3-triazol-1-yl]-3′-[4-(3,4,5-trifluorophenyl)-1H-1,2,3-triazol-1-yl]-1,1′-sulfanediyl-di-β-D-galactopyranoside]: the solubility in “Solubility” was above 10000 µg/mL.
`OCC1O[C@@H](SC2O[C@H](CO)C(O)C(n3cc(C4CCNCC4)nn3)[C@H]2O)C(O)[C@@H](n2cc(-c3cc(F)c(F)c(F)c3)nn2)[C@H]1O` (stereo partly drawn) [Example 3, 3,3′-Dideoxy-3-[4-(piperidin-4-yl)-1H-1,2,3-triazol-1-yl]-3′-[4-(3,4,5-trifluorophenyl)-1H-1,2,3-triazol-1-yl]-1,1′-sulfanediyl-di-β-D-galactopyranoside]: in the series “Solubility”, the solubility is above 10000 µg/mL. Further, the Kd at galectin-1 worked out at 0.029 µM; on galectin-3, 0.005 µM.
Take `OCC1O[C@@H](SC2O[C@H](CO)C(O)C(n3cc(C4CCOCC4)nn3)[C@H]2O)C(O)C(n2cc(-c3cc(F)c(F)c(F)c3)nn2)[C@H]1O` (stereo partly drawn) [Example 4, 3,3′-Dideoxy-3-[4-(tetrahydropyran-4-yl)-1H-1,2,3-triazol-1-yl]-3′-[4-(3,4,5-trifluorophenyl)-1H-1,2,3-triazol-1-yl]-1,1′-sulfanediyl-di-β-D-galactopyranoside]: at galectin-1, the Kd came out at 0.058 µM.
In “Solubility”, `OCC1O[C@@H](SC2O[C@H](CO)C(O)C(n3cc(C4CCOCC4)nn3)[C@H]2O)C(O)[C@@H](n2cc(-c3cc(F)c(F)c(F)c3)nn2)[C@H]1O` (stereo partly drawn) [Example 4, 3,3′-Dideoxy-3-[4-(tetrahydropyran-4-yl)-1H-1,2,3-triazol-1-yl]-3′-[4-(3,4,5-trifluorophenyl)-1H-1,2,3-triazol-1-yl]-1,1′-sulfanediyl-di-β-D-galactopyranoside] came in with a solubility of 8100 µg/mL (≈ 12 mM).
Take `CC(C)c1cn(C2C(O)[C@@H](CO)OC(S[C@@H]3OC(CO)[C@H](O)C(n4cc(-c5cc(F)c(F)c(F)c5)nn4)C3O)[C@@H]2O)nn1` (stereo partly drawn) [Example 5, 3,3′-Dideoxy-3-[4-(propan-2-yl)-1H-1,2,3-triazol-1-yl]-3′-[4-(3,4,5-trifluorophenyl)-1H-1,2,3-triazol-1-yl]-1,1′-sulfanediyl-di-β-D-galactopyranoside]: the Kd at galectin-1 stood at 0.07 µM.
`CC(C)c1cn(C2C(O)[C@@H](CO)OC(S[C@@H]3OC(CO)[C@H](O)[C@H](n4cc(-c5cc(F)c(F)c(F)c5)nn4)C3O)[C@@H]2O)nn1` (stereo partly drawn) [Example 5, 3,3′-Dideoxy-3-[4-(propan-2-yl)-1H-1,2,3-triazol-1-yl]-3′-[4-(3,4,5-trifluorophenyl)-1H-1,2,3-triazol-1-yl]-1,1′-sulfanediyl-di-β-D-galactopyranoside] gave a solubility in “Solubility” above 10000 µg/mL.
Regarding `OC[C@H]1O[C@@H](S[C@@H]2O[C@H](CO)[C@H](O)[C@H](n3cc(-c4cccc(F)c4)nn3)[C@H]2O)[C@H](O)[C@@H](n2cc(-c3cccc(F)c3)nn2)[C@H]1O` [GB1A, 3,3′-Dideoxy-3,3′-bis-[4-(3-fluoro-phenyl)-1H-1,2,3-triazol-1-yl]-1,1′-sulfanediyl-di-β-D-galactopyranoside], in series [1], the “reduction of size and number of subretinal glial scars and number of dividing cells” value is given as “highly effective”; the “number of subretinal scars per mm of retina” value is 0.45 scars per mm of retina; the “scar length per mm of retina” value was 25.83 microns per mm of retina; the “Ki67 labeled Muller cells per mm of retina” value was 3.01 cells per mm of retina.
The like results for `OC[C@H]1O[C@@H](S[C@@H]2O[C@H](CO)[C@H](O)[C@H](n3cc(-c4ccc(F)cn4)nn3)[C@H]2O)[C@H](O)[C@@H](n2cc(-c3ccc(F)cn3)nn2)[C@H]1O` [GB1B, 3,3′-Dideoxy-3,3′-bis-[4-(5-fluoro-2-pyridinyl)-1H-1,2,3-triazol-1-yl]-1,1′-sulfanediyl-di-β-D-galactopyranoside] were, in that order, “highly effective”, 0.43 scars per mm of retina, 28.8 microns per mm of retina and 2.73 cells per mm of retina.
For the compound `OC[C@H]1O[C@@H](O[C@H]2[C@H](O)[C@@H](O)C(O)O[C@@H]2CO)[C@H](O)[C@@H](O)[C@H]1O` (stereo partly drawn) [lactose], the Kd on galectins is 500 to 1000 µM.
